Marks after values point to notes of the source that are not given here.
Assays:
[1] = Body weight and splenocyte counts 7 days after trauma (NS-398 twice a day over 7 days); assay type: in vivo, BALB/c mice; conditions: for Body Wt.: day 7
Experimental: (§1) Animals, Experimental Protocol, NS-398 preparation were as described in Example I. Macrophages were prepared as described initially under “Macrophage Preparation ” in Example I. After lysis of erythrocytes with ammonium chloride solution and centrifugation as described in Example I, macrophages were further prepared by resuspending the pellet in RPMI-1640 (Gibco BRL, Life Technologies Inc) containing 2 mmol/L L-glutamine, 100 U/mL penicillin, 100 μg/mL streptomycin, 0.25 μg/mL amphotericin B, and 10% heat-inactivated fetal calf serum (Gibco BRL, Life Technologies Inc), counted via hemocytometer and diluted to a final concentration of 5×10^6 cells/mL, and plated in 96 well plates in a volume of 0.2 mL per well. After allowing macrophages to adhere for 2 hours, the remaining cells were suctioned off and the macrophages were cultured in the +/−1 ng LPS 055:B5 (Sigma, St. Louis, Mo.) per mL at 37° C. in 5% carbon dioxide incubators. Supernatants were harvested at 24 hours and stored at −70° C. until analysis for batch enzyme-linked immunosorbent assay processing to determine prostaglandin and cytokine production.
Body weight and splenocyte recovery after injury±NS-398 were recorded.
(§2) BALB/C mice (n=8/group) were given 10mg/kg NS398 intraperitoneally BID for 7 days, starting immediately after sham injury or trauma (femur fracture+40% hemorrhage). Four groups, sham+placebo (C); sham+NS398 (CN); trauma+placebo (T); or trauma+NS398 (TN) were studied. On day 7 after trauma, mice were sacrificed and splenic macrophages evaluated for PGE2, TNF-α and NO production (via Student's t-test). In a separate study, mice (n=10-11/group) were traumatized and given NS398 for 7 days. On day 7, cecal ligation and puncture was performed, and mice evaluated for survival over 3 weeks (via Log-rank test).

[2] = test system: BALB/c mice given a septic challenge by cecal ligation and puncture; assay: Survival after septic challenge (cecal ligation and puncture) on day 7 after trauma, 3 doses of NS-398 within 24 h; assay type: in vivo
Description: A value of p<0.05 was considered significant. […] A value of p<0.05 was considered significant.

plasma PGE2 = assay: Plasma PGE2 levels at 1 and 7 days after trauma; assay type: in vivo, BALB/c mice
Experimental: Plasma PGE2 levels were determined in separate experiments by sacrificing mice at 1 day and at 7 days after treatment with NS-398. There was an increase in PGE2 levels at 1 and 7 days after traumatic injury compared with uninjured controls.

[3] = test system: LPS stimulated human PBMC's; assay: PGE2, LTB4 and TNF-α production from LPS stimulated PBMC's co-incubated with NS-398; assay type: cell-based
Experimental: The study included 10 patients sustaining either long-bone fracture or ≧15% total body surface burn and 10 control subjects (protocol approved by the Weill Medical College of Cornell University Internal Research Board). Blood samples were obtained within 12 hours of fracture or burn injury. Immune compromised patients including those with cancer, collagen-vascular diseases, HIV or any recent history of steroid or NSAID drug use were excluded from this study. Each patient sample was run simultaneously with a control sample.
Peripheral venous blood samples were collected into two heparin-EDTA tubes and placed on ice. 6 mL of Histopaque (Sigma Chemical Co., St. Louis, Mo.) was layered into a conical 15 mL tube and 6 mL of undiluted whole blood was gently layered over the top. Tubes were then centrifuged at 1000 rpm for 30 minutes at room temperature. A sterile pasteur pipet was used to gently collect the layer of PBMC's which were then transferred to a new 15 mL tube. Samples were washed twice with 10 mL Ca^+2 and Mg^+2-free Hanks Buffered Salt Solution (Gibco BRL-Life Technologies, Grand Island, N.Y.) and centrifuged at 1100 rpm for 10 minutes. The supernatant was discarded and the pellet resuspended in complete RPMI-1640 (Gibco BRL-Life Technologies, Grand Island, N.Y.) with 10% heat inactivated fetal bovine serum (Gibco BRL-Life Technologies, Grand Island, N.Y.) and 1% antibiotic/antimycotic solution. Cells were then adjusted to a final concentration of 1×10^6 cells/mL and plated. Cells were incubated at 37° C. in a 5% CO2 atmosphere with supernatants harvested at 24 hours and frozen at −70° C. for determination of prostaglandin and cytokine production.
Serial dilutions were made to co-culture cells with a final concentration of […] NS-398 in a 0.1% DMSO. Control and trauma groups were co-cultured with 0.1% DMSO vehicle for comparisons with NS-398 treated groups.

[4] = test system: LPS stimulated splenic macrophages; assay: Mediator production (PGE2, LTB4, TNF-α, NO, IL-6) by LPS stimulated splenic macrophages 7 days after trauma, NS-398 twice a day over 7 days; assay type: in vivo, BALB/c mice; conditions: for NO: mean ± SEM
Experimental: as §1
NO was measured indirectly by NO2^− concentration using the Greiss reagent system (Promega, Madison, Wis). Protein was quantified using the BCA protein reagent (Pierce, Rockford, Ill.) and all measurements were normalized to protein content per well.
as §2

COX-2 mRNA = COX-2 mRNA expression in LPS stimulated splenic macrophages by RT-PCR (3 doses within 24 h); assay type: in vivo, BALB/c mice; conditions: traumatized mice + NS-398, 3 doses within 24 h, day 7
Experimental: Isolated splenic macrophages were treated with lipopolysaccharide (LPS) (10 ng/ml) for six hours.
To evaluate the relative expression of COX-2 mRNA, splenic macrophages were treated as previously described and harvested by RT-PCR.

[5] = C + NS398, 10 mg/kg i.p. BID for 7 days
[6] = T + NS398, 10 mg/kg i.p. BID for 7 days
[7] = injured mice + NS-398 over 7 days vs untreated injured, P<0.05

CS(=O)(=O)Nc1ccc([N+](=O)[O-])cc1OC1CCCCC1 [NS-398, N-(2-cyclohexyloxy-4-nitrophenyl)methanesulfonamide]
Body Wt. ([1]; Control + NS-398, twice a day over 7 days): 18.3 ± 0.3 g
Body Wt. ([1]; Trauma + NS-398, twice a day over 7 days): 16.7 ± 0.7 g
difference in body weight ([1]; control versus trauma+NS-398 mice, 7 days after trauma): no significant difference
survival ([2]; T + NS, 3 i.p. injections of 10 mg/kg, CLP on day 7, n=10-12): 92%#
survival ([2]; control mice treated with NS-398): 66%
survival ([2]; traumatized mice treated with NS-398): 92%
Plasma PGE2 Day 1 (plasma PGE2; Control + NS-398): 24,652 pg/ml
Plasma PGE2 Day 7 (plasma PGE2; Control + NS-398): 7,244 pg/ml
Plasma PGE2 Day 1 (plasma PGE2; Trauma + NS-398): 26,370 pg/ml
Plasma PGE2 Day 7 (plasma PGE2; Trauma + NS-398): 4,354 pg/ml
Plasma PGE2 levels (in words) (plasma PGE2; control and injured mice, 1 and 7 days): attenuated in both control and injured mice
TNF-α production ([3]; PBMC's after injury, co-culture with NS-398, P<0.05): significantly decreased production
PGE2 production ([3]; PBMC's of injured patients, co-culture with 10μM NS-398, T vs TN P<0.001): significantly reduced the production of PGE2
LTB4 production ([3]; control cells, co-culture with NS-398, P<0.05): significant increase in the production of LTB4
LTB4 production ([3]; trauma cells, co-culture with NS-398, P<0.004): significant increase in the production of LTB4
TNF-α [4, 5]: 2.6 ± 0.3 pg/μg protein
NO [4, 5]: 54.8 ± 2.1 nmol/μg protein
LTB4 levels (in words) ([4]; NS-398 given after injury, over 7 days): did not restore LTB4 levels to those seen in control
TNF-α [4, 6]: 2.6 ± 0.3 pg/μg protein
NO [4, 6]: 48.0 ± 3.3 nmol/μg protein
PGE2 production ([4]; injured mice + NS398 (TN), 10 mg/kg i.p. BID for 7 days): 3.1±0.4 pg/μg protein
IL-6 production (in words) [4, 7]: significantly attenuated production
NO production (in words) [4, 7]: significantly attenuated production
TNF-α production (in words) [4, 7]: significantly attenuated production
PGE2 production by splenocytes/macrophages (in words) ([4]; traumatized mice + NS-398 over 7 days, P<0.05): produce significantly less PGE2
COX-2 mRNA levels relative to GAPDH (COX-2 mRNA): attenuated the levels of COX-2 mRNA to below control levels
COX-2 mRNA levels relative to GAPDH (COX-2 mRNA; listed as NS398): significant decreases

— US20020006915A1, “Use of COX-2 inhibitors to treat sepsis, complications thereof, and EP receptor modulation” (priority 2000, published 2002)
